Measurements published in ChEMBL document CHEMBL4257225, “Compounds and compounds for use in methods for treating diseases or conditions mediated by protein disulfide isomerase” (2016).
Active and inactive are the calls of the source. The calls are words filed in the database; no cut-off is given here.

Key:
[1] = target: Protein disulfide-isomerase (Homo sapiens) (UniProt P07237); assay: Inhibition of PDI in human platelet rich plasma assessed as reduction in SFLLRN peptide-induced platelet aggregation preincubated for 30 mins followed by SFLLRN addition relative to control
Mus musculus = species on record: Mus musculus; assay: Anti-platelet activity in mouse assessed as inhibition of laser injury-induced thrombus formation by measuring reduction in platelet accumulation in cremaster arterioles by microscopic method; assay type: functional, organism-based

Sequence of Protein disulfide-isomerase (Homo sapiens) (P07237 18-508 limits assumed): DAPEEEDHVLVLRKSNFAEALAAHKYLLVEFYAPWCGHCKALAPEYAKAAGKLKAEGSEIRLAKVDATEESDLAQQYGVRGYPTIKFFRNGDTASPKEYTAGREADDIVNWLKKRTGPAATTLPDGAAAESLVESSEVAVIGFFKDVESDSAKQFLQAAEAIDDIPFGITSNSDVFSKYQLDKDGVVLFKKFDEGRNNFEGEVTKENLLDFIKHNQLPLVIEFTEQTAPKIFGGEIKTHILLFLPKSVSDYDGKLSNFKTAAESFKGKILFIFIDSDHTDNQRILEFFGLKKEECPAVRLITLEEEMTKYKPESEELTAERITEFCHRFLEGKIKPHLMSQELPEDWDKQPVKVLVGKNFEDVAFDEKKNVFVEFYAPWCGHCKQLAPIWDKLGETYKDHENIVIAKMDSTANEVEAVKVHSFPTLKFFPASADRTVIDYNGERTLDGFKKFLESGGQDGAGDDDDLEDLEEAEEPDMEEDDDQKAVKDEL

| inhibition [1] [%] | Compound | inhibition (Mus musculus) |
| --- | --- | --- |
| 100 | CCOC(=O)C1(CCOc2ccccc2)CCN(C(=O)c2ccc(O)c(Cl)c2)CC1 | – |
| 25 to 50 | CCOC(=O)C1(CCOc2ccccc2)CCN(Cc2ccc(O)c(Cl)c2)CC1 | Active |
| 100 | CC(C)(C)OC(=O)C1(CCOc2ccccc2)CCN(Cc2ccc(O)c(Cl)c2)CC1 | – |
